ChEMBL document CHEMBL1141836, “Sporovexins A-C and a new preussomerin analog: antibacterial and antifungal metabolites from the coprophilous fungus Sporormiella vexans” (1999)
Calls of active or inactive are those of the source. The calls are words filed in the database; no cut-off is given here.

Experiments:
Candida albicans = experiment: Antifungal activity against Candida albicans ATCC 10453 at 200 ug/disk by standard disk assay; format: functional, organism-based
Ascobolus = experiment: Antifungal activity against Ascobolus furfuraceus NRRL 6460 assessed as reduction in radical growth rate at 200 ug/disk by centerpoint inoculation disk assay; format: functional; parameters: scale not given: the % may be the effect or the level left
Bacillus subtilis = experiment: Antibacterial activity against Bacillus subtilis ATCC 6051 at 100 ug/disk by standard disk assay; format: functional; details: read-out: IZ

For `CC(C(=O)O)C(O)COc1ccc(C(=O)O)cc1` (configuration not stated), the Activity (Candida albicans) was “inactive”.

In the case of `O=C1C[C@@H](O)[C@]23Oc4ccc(O)c5c4[C@](Oc4cccc1c42)(O3)[C@@H]1O[C@@H]1[C@H]5O`, the Activity (Ascobolus) is reported as 40% and the Activity (Candida albicans) is reported as “inactive”.

With `CC(CCOc1ccc(C(=O)NCCC(=O)O)cc1)C(=O)O` (configuration not stated) the Activity (Candida albicans) was “inactive”.

For `CC(CCOc1ccc(C(=O)O)cc1)C(=O)O` (configuration not stated) [SPOROVEXIN A], the Activity (Ascobolus) was 90%, the zone of inhibition at 100 µg/disc (Bacillus subtilis) was 9 mm and the Activity (Candida albicans) was “inactive”.
